Drawing on a melting point compilation (Tetko et al.), this text covers melting point for 124 compounds.

The melting point is the temperature of the solid-liquid transition.

On to `COc1ccc(-c2cnnc(N)n2)cc1`, for which the melting point was in the range of 246 to 248 °C.

Consider `Nc1cccc(-c2nnc[nH]2)c1`, for which the melting point lay in the range of 182 to 184 °C.

With `Nc1ccc(C(=O)N2CCCCCC2)cc1`, the melting point was in the range of 133 to 135 °C.

In turn, `CC(O)c1cc2ccccc2o1` (centres undefined) gave a melting point of less than 17 °C.

In turn, `O=C(CCl)Nc1ccccc1-c1ccccc1` registered a melting point of 103 to 106 °C.

`O=C(O)CNC(=O)c1ccccc1OC(F)F` came in with a melting point of 66 to 68 °C.

The compound `COc1ccc(N)cc1NC(=O)OC(C)(C)C` displayed a melting point of 108 to 110 °C.

The compound `Cc1cc2ncn(C(C)C(N)=S)c2cc1C` (centres undefined) yielded a melting point of 204 to 206 °C.

Consider `O=C(O)CNCc1c(F)cccc1Cl`, for which the melting point lay in the range of 184 to 186 °C.

As to `N#Cc1ccccc1N1CCOCC1`, the melting point lay in the range of 48 to 50 °C.

In turn, `COc1cc(Br)cc(F)c1C#N` came in with a melting point of 75 to 77 °C.

In turn, `CC(=O)N1CCN(CC(N)=S)CC1` showed a melting point of 199 to 201 °C.

`CCOC(=O)c1c(-c2ccc(C)s2)csc1N` yielded a melting point of 93 to 95 °C.

For the compound `CC(Oc1ccc(F)c(F)c1)C(=O)O` (centres undefined), the melting point was 39 to 41 °C.

As for `COc1cccc(Cl)c1C(=O)O`, the melting point lay in the range of 140 to 142 °C.

`Cc1ccc2[nH]c(C(=O)O)cc2c1C` came in with a melting point of 243 to 245 °C.

As for `NC1(C(=O)O)CCOC1` (centres undefined), the melting point lay within 244 to 246 °C.

In the case of `N=c1nc(S)ss1`, the melting point is 192 to 196 °C.

Compound `CCS(=O)(=O)CC(=O)O` registered a melting point of 57 to 59 °C.

In turn, `CC(C)C(Br)C(=O)Nc1ccccc1C(F)(F)F` (centres undefined) had a melting point of 123 to 125 °C.

For the compound `CSc1nn(C)c2nc[nH]c(=O)c12`, the melting point lay in the range of 251 to 253 °C.

Compound `CCN(CC)CCn1c(N)nc2ccccc21` registered a melting point of 129 to 131 °C.

`O=C(CCl)NC1C2CC3CC(C2)CC1C3` (centres undefined) had a melting point of 118 to 122 °C.

On to `Cc1cccc(Cl)c1S(N)(=O)=O`, for which the melting point lay within 119 to 121 °C.

For `O=[N+]([O-])c1cc(Cl)cc(Cl)c1S(=O)(=O)Cl`, the melting point was 218 to 221 °C.

Consider `Cc1ccc2c(c1)nc(S)n2Cc1ccccc1Cl`, for which the melting point lay within 189 to 191 °C.

In the case of `Cc1c(NC(=O)CSc2nnc(N)s2)c(=O)n(-c2ccccc2)n1C`, the melting point lay within 142 to 144 °C.

On to `O=C(O)CCSc1ccccc1F`, for which the melting point is 118 to 120 °C.

`COCc1nc(C(=O)O)cs1` gave a melting point of 106 to 108 °C.

In turn, `Cc1cc(N)ccc1N1CCCC1=O` registered a melting point of 159 to 161 °C.

Turning to `O=S(=O)(c1ccc(Cl)c(C(F)(F)F)c1)N1CCNCC1`, the melting point fell in the range of 292 to 295 °C.

Take `Cc1n[nH]c2ncc([N+](=O)[O-])cc12`: the melting point fell in the range of 189 to 191 °C.

The compound `Nc1ccn(-c2ncccc2Cl)n1` had a melting point of 89 to 91 °C.

Compound `COCCOc1cc(C(=O)O)nc2ccccc12` yielded a melting point of 179 to 181 °C.

`Cc1nnc2ccc(Br)cn12` registered a melting point of 149 to 151 °C.

`O=C(O)Cn1ccc([N+](=O)[O-])n1` displayed a melting point of 172 to 174 °C.

In the case of `O=C(CS)Nc1ccccn1`, the melting point fell in the range of 93 to 95 °C.

Take `COc1cc(S(=O)(=O)Cl)cc(C(=O)O)c1OC`: the melting point was 159 to 161 °C.

`CC(C)(C)CC(=O)Nc1ccc(Cl)c(C(=O)O)c1` yielded a melting point of 214 to 216 °C.

On to `NCc1nnn[nH]1`, for which the melting point was in the range of 269 to 271 °C.

`c1cnc2c(NC3CCC3)cccc2c1`: the melting point was in the range of 48 to 50 °C.

Regarding `COc1c(C)cnc(Cn2ccc(N)n2)c1C`, the melting point was in the range of 59 to 61 °C.

Regarding `Cc1ccc(C2(C)NC(=O)NC2=O)cc1` (centres undefined), the melting point was in the range of 207 to 209 °C.

As for `Cc1cccc2nc(CSc3ccccc3C(=O)O)cc(=O)n12`, the melting point lay within 211 to 213 °C.

Consider `Cc1ccc(S(=O)(=O)Nc2ccc(C(=O)O)cc2)cc1C`, for which the melting point lay in the range of 219 to 221 °C.

The compound `CCCOc1cc2c(cc1C=O)OC(C)C2` (centres undefined) came in with a melting point of 45 to 47 °C.

For the compound `Nc1ccc(N2CCSCC2)cc1`, the melting point lay within 109 to 111 °C.

Take `COc1ccc(CNC(N)=S)cc1OC`: the melting point lay in the range of 191 to 193 °C.

`O=C(c1cc2ccccc2o1)C1CC1` returned a melting point of 63 to 65 °C.

In the case of `N#Cc1ccc2[nH]c(=O)[nH]c2c1`, the melting point lay in the range of 296 to 298 °C.

`NS(=O)(=O)c1nccs1` had a melting point of 119 to 121 °C.

`CC(C)(C)c1nnc(CCl)o1`: the melting point lay in the range of 42 to 44 °C.

For `CN(C)S(=O)(=O)c1cccc(C(=O)NCC(=O)O)c1`, the melting point fell in the range of 172 to 176 °C.

`CC(=O)NC1CCC(=O)CC1` registered a melting point of 136 to 140 °C.

In turn, `CC(C)(C)OC(=O)N1CCNC(C#N)C1` (centres undefined) displayed a melting point of 109 to 111 °C.

`O=C(O)c1cnoc1-c1ccc(Cl)cc1` returned a melting point of 205 to 207 °C.

Take `COC(=O)c1ccncc1C(=O)O`: the melting point is 175 to 177 °C.

For `NCc1ccc(C(=O)NCC(N)=O)cc1`, the melting point was 199 to 201 °C.

Compound `O=C(O)CCn1cc(Cl)cn1` returned a melting point of 91 to 93 °C.

Compound `Cc1cc(C(=O)O)on1` had a melting point of 199 to 201 °C.

Regarding `O=C(O)C1CCN(C=CC(=O)C(F)(F)F)CC1`, the melting point is 135 to 137 °C.

Regarding `CC(=O)c1ccc(C(F)(F)C(=O)O)n1C`, the melting point was in the range of 115 to 117 °C.

The compound `CCCS(N)(=O)=O` displayed a melting point of 47 to 49 °C.

With `CCn1c(C)c(C(=O)O)c2cc(OC)ccc21`, the melting point lay in the range of 173 to 175 °C.

`CC(C)c1nn(-c2ccccc2)cc1C=O` yielded a melting point of 59 to 61 °C.

Compound `NN1CCCC1=O` showed a melting point of 47 to 49 °C.

The compound `Clc1ccc(N2CCNCC2)nc1` showed a melting point of 64 to 66 °C.

Compound `NCc1cccc(NC(=O)c2ccncc2)c1` displayed a melting point of 128 to 130 °C.

For `COc1ccc(OC)c(-c2nn(-c3ccccc3)cc2C(=O)O)c1`, the melting point lay in the range of 174 to 176 °C.

`O=C(O)COc1ccc2oc3c(c2c1)CCCC3` showed a melting point of 188 to 190 °C.

Consider `CC(C)(C)S(=O)(=O)c1ccc(Br)cn1`, for which the melting point lay within 116 to 118 °C.

`Cc1c(C(C)N)cnn1-c1ccc(F)cc1` (centres undefined) gave a melting point of 42 to 44 °C.

In turn, `Cc1cc(C)cc(-n2nnnc2S)c1` displayed a melting point of 164 to 166 °C.

In the case of `N#Cc1cccnc1OCC(F)(F)F`, the melting point was in the range of 40 to 42 °C.

Turning to `O=C(Cc1ccccc1)Nc1ccccc1C(=O)O`, the melting point lay within 192 to 194 °C.

`Cc1noc(C)c1CC(=O)O` returned a melting point of 117 to 119 °C.

With `O=C(O)CCc1ncc(-c2ccccc2)o1`, the melting point fell in the range of 148 to 150 °C.

In the case of `CSCCC(NC(=O)c1cccc(C)c1)C(=O)O` (centres undefined), the melting point is 115 to 117 °C.

Take `ClCc1cn2cccnc2n1`: the melting point lay in the range of 125 to 127 °C.

Turning to `CCOc1ccc(S(N)(=O)=O)c2ccccc12`, the melting point lay in the range of 168 to 170 °C.

The compound `COc1ccc(C=C2CCCc3c2nc2ccccc2c3C(=O)O)cc1OC` returned a melting point of 110 to 114 °C.

`O=C(CCl)N1CCN(S(=O)(=O)c2ccc(Cl)s2)CC1` showed a melting point of 240 to 245 °C.

In the case of `CC(Br)C(=O)c1ccc(Cl)cc1` (centres undefined), the melting point was in the range of 68 to 70 °C.

Consider `CCOC(=O)c1cc(S(C)(=O)=O)ccc1N`, for which the melting point was 130 to 132 °C.

As for `Cc1[nH]c2ccccc2c(=O)c1C(C)C`, the melting point fell in the range of 299 to 301 °C.

The compound `O=C1CCCS(=O)(=O)C1` showed a melting point of 141 to 143 °C.

Consider `CC(C)(C)c1n[nH]c(O)c1CCC#N`, for which the melting point fell in the range of 218 to 220 °C.

Take `O=[N+]([O-])c1ccc2c(c1)S(=O)(=O)C=C2`: the melting point was in the range of 179 to 181 °C.

In the case of `Cc1nc(COc2ccc(C=O)cc2)cs1`, the melting point was 46 to 48 °C.

`OCCOc1ccc(O)cc1` registered a melting point of 86 to 88 °C.

In the case of `Cc1oc(-c2cccs2)nc1C(=O)O`, the melting point fell in the range of 196 to 198 °C.

`NCC(O)c1ccc(F)c(F)c1` (centres undefined) registered a melting point of 53 to 55 °C.

In turn, `Clc1ccnc2cc(Br)ccc12` came in with a melting point of 99 to 101 °C.

In turn, `COc1ccc(Br)cc1C(N)C(=O)O` (centres undefined) gave a melting point of 163 to 165 °C.

`O=C(O)C1CCCc2[nH]ncc21` (centres undefined) registered a melting point of 176 to 178 °C.

Compound `Cc1ccc2c(CC(=O)O)cc(=O)oc2c1` displayed a melting point of 209 to 211 °C.

The compound `NC(=O)c1ccc(OCCCl)cc1` had a melting point of 182 to 184 °C.

The compound `CS(=O)(=O)c1ccccc1Br` yielded a melting point of 107 to 109 °C.

Compound `Cc1cc(N)nc(Cl)n1` gave a melting point of 220 to 222 °C.

As to `COC(=O)c1ccc(C=O)[nH]1`, the melting point fell in the range of 99 to 101 °C.

On to `O=c1cc(CCl)nc2ccc(Cl)cn12`, for which the melting point was in the range of 149 to 151 °C.

For the compound `O=C(CCl)Nc1ccnn1C1CCCC1`, the melting point was in the range of 76 to 78 °C.

Turning to `COc1cc(OC)c(N)c(C(=O)O)c1`, the melting point fell in the range of 189 to 191 °C.

`CCOC(Cn1cc(C(=O)O)nn1)OCC` yielded a melting point of 138 to 140 °C.

As to `O=C(O)/C=C/c1cccc(OCc2ccccc2)c1`, the melting point lay within 151 to 153 °C.

For the compound `CC(Cl)C(=O)NC(C)c1ccc2c(c1)OCCO2` (centres undefined), the melting point lay in the range of 110 to 112 °C.

The compound `O=C(O)c1nc2[nH]c(-c3ccccc3)cc(=O)n2n1` came in with a melting point of 282 to 284 °C.

In turn, `O=C(O)C=C1CCSCC1` gave a melting point of 56 to 58 °C.

The compound `NNC(=S)NCCc1ccccn1` had a melting point of 124 to 126 °C.

`O=C(O)c1ccc(Cl)c(S(=O)(=O)N2CCCC2)c1` showed a melting point of 239 to 241 °C.

For the compound `O=C(O)c1cccc(S(=O)(=O)CC(F)F)c1`, the melting point was in the range of 170 to 172 °C.

In turn, `OC1CCc2cc(Br)ccc21` (centres undefined) returned a melting point of 69 to 71 °C.

With `O=C(O)CNC(=O)CCC1CCCC1`, the melting point fell in the range of 112 to 114 °C.

The compound `Cc1ccc(F)cc1NC(=O)C(C)Cl` (centres undefined) displayed a melting point of 101 to 103 °C.

Regarding `N#Cc1cc(Cl)nc2ccccc12`, the melting point was in the range of 153 to 155 °C.

`CNCc1nc(-c2ccccc2)c[nH]1` displayed a melting point of 117 to 119 °C.

In turn, `CCC(=O)N1CCC(C(=O)O)C1` (centres undefined) returned a melting point of 118 to 120 °C.

In the case of `C=CCNc1nc2c(s1)CCCC2`, the melting point was in the range of 77 to 79 °C.

Take `O=C(O)C(Sc1ccc(F)c(Cl)c1)c1ccccc1` (centres undefined): the melting point lay in the range of 74 to 76 °C.

`CN1CC(=O)Nc2cc(C(=O)O)ccc21`: the melting point was in the range of 322 to 324 °C.

`Nc1ccc2nc(N)ccc2c1` returned a melting point of 213 to 215 °C.

`O=C(Nc1ccccc1[N+](=O)[O-])c1ccc2ccccc2n1` gave a melting point of 73 to 75 °C.

In turn, `O=C(O)C1(c2ccccc2F)CC1` displayed a melting point of 106 to 108 °C.

Take `Cn1c(=O)oc(=O)c2cc([N+](=O)[O-])ccc21`: the melting point lay in the range of 180 to 182 °C.
